In the CombiSolv-Exp solvation set (Vermeire and Green 2021):

Test: solvent given as SMILES

O=C(O)c1cccc(O)c1
Conditions | solvation free energy, 298 K [kcal/mol]
in O | -9.55

CCCCC
Conditions | solvation free energy, 298 K [kcal/mol]
in BrC(Br)C(Br)Br | -2.06
in Brc1ccccc1 | -2.95
in C1=Cc2ccccc2C1 | -2.75
in C1CCCCC1 | -3.34
in C1CCOC1 | -3.22
in C1COCCO1 | -2.6
in C=CCCCC | -3.34
in C=CCCCCCC | -3.24
in C=CCCCCCCCC | -3.16
in C=CCCCCCCCCCCCCCC | -2.88
in CC1COC(=O)O1 | -1.59
in CC#N | -2.15
in CC(=O)CC(C)C | -2.86
in CC(=O)N(C)C | -2.29
in CC(=O)O | -2.36
in CC(=O)c1ccccc1 | -2.43
in CC(C)=O | -2.73
in CC(C)CC(C)(C)C | -3.24
in CC(C)CCCC(C)CCCC(C)CCCCC(C)CCCC(C)CCCC(C)C | -2.8
in CC(C)CCO | -2.82
in CC(C)O | -2.6
in CC(C)OC(C)C | -3.35
in CCBr | -3.45
in CCC#N | -2.59
in CCC(C)=O | -2.82
in CCC(C)O | -2.65
in CCCC#N | -2.48
in CCCC(=O)OCC | -3
in CCCC(C)=O | -2.89
in CCCCC(CC)COC(=O)CCCCC(=O)OCC(CC)CCCC | -2.65
in CCCCC(CC)COC(=O)c1ccccc1C(=O)OCC(CC)CCCC | -2.47
in CCCCCC | -3.36
in CCCCCC(C)=O | -2.92
in CCCCCCC | -3.27
in CCCCCCCC | -3.24
in CCCCCCCCC | -3.18
in CCCCCCCCC=CCCCCCCCC(=O)OCC(COC(=O)CCCCCCCC=CCCCCCCCC)OC(=O)CCCCCCCC=CCCCCCCCC | -2.77
in CCCCCCCCCC | -3.16
in CCCCCCCCCCCC | -3.05
in CCCCCCCCCCCCCC | -2.9
in CCCCCCCCCCCCCCCC | -2.93
in CCCCCCCCCOC(=O)c1ccccc1C(=O)OCCCCCCCCC | -2.55
in CCCCCCCCN(CCCCCCCC)CCCCCCCC | -2.81
in CCCCCCCCO | -2.7
in CCCCCCCO | -2.66
in CCCCCCO | -2.68
in CCCCCCOC(C)=O | -2.96
in CCCCCN(CCCCC)CCCCC | -2.98
in CCCCCO | -2.65
in CCCCCl | -3.22
in CCCCN(C=O)CCCC | -2.59
in CCCCN(CCCC)CCCC | -2.9
in CCCCO | -2.7
in CCCCOC(=O)c1ccccc1C(=O)OCCCC | -2.59
in CCCCOC(C)=O | -2.94
in CCCCOCCCC | -3.19
in CCCO | -2.58
in CCN1CCCC1=O | -2.25
in CCN(CC)C(C)=O | -2.48
in CCN(CC)CC | -3.31
in CCNC(C)=O | -2.35
in CCNC=O | -2.11
in CCO | -2.51
in CCOC(=O)c1ccccc1C(=O)OCC | -2.11
in CCOC(C)=O | -2.85
in CCOCC | -3.3
in CCOCCOCCOCC | -2.79
in CCOc1ccccc1 | -2.82
in CN1CCCC1=O | -2.18
in CN1CCCCC1=O | -2.16
in CN1CCN(C)C1=O | -1.88
in CN(C)C=O | -2.18
in CN(C)P(=O)(N(C)C)N(C)C | -2.39
in CNC(C)=O | -2.17
in CNC=O | -1.87
in CO | -2.29
in COC(C)=O | -2.66
in COCCO | -2.16
in COCCOCCOCCOCCOC | -2.2
in COc1ccccc1 | -2.76
in CS(C)=O | -1.41
in Cc1ccc(C)cc1 | -3.16
in Cc1cccc2ccccc12 | -2.63
in Cc1cccc(C)c1 | -3.11
in Cc1cccc(O)c1 | -2.28
in Cc1ccccc1 | -3.15
in Cc1ccccn1 | -2.82
in ClC(Cl)(Cl)Cl | -3.32
in ClC(Cl)C(Cl)Cl | -2.77
in ClC(Cl)Cl | -3.23
in ClCCCl | -2.77
in ClCCl | -3.07
in Clc1cccc2ccccc12 | -2.5
in Clc1ccccc1 | -3.14
in FC(F)(F)C(F)(F)C(F)(F)C(F)(F)C(F)(F)C(F)(F)C(F)(F)C(F)(F)F | -2.06
in FC(F)(F)C(F)(F)C(F)(F)C(F)(F)C(F)(F)C(F)(F)F | -2.15
in Fc1ccccc1 | -3.25
in ICI | -1.67
in Ic1ccccc1 | -2.61
in N#CCCCCC#N | -1.32
in N#CCc1ccccc1 | -1.99
in N#Cc1ccccc1 | -2.48
in NC=O | -0.44
in NCCO | -0.27
in Nc1ccccc1 | -1.89
in O=C1CCCCC1 | -2.73
in O=C1CCCO1 | -1.72
in O=C(O)C(Cl)Cl | -2.12
in O=CN1CCOCC1 | -1.51
in O=Cc1ccco1 | -1.8
in OC1CCCCC1 | -2.46
in OCCO | -0.34
in OCCOCCO | -0.86
in OCCc1ccccc1 | -2.12
in OCc1ccccc1 | -2.06
in OCc1ccco1 | -1.67
in S=C=S | -3.29
in c1ccc2ncccc2c1 | -2.54
in c1ccccc1 | -3.15
in c1ccncc1 | -2.64

O=C(O)c1ccc(I)cc1
Conditions | solvation free energy, 298 K [kcal/mol]
in CN(C)C=O | -14
in O | -7.96

CC1=CCC(=C(C)C)CCC(C)=CCC1
Conditions | solvation free energy, 298 K [kcal/mol]
in O | -0.37

O=c1[nH]c2ccccc2n1C1CCN(CCCC(c2ccc(F)cc2)c2ccc(F)cc2)CC1
Conditions | solvation free energy, 298 K [kcal/mol]
in C1COCCO1 | -27.7
in CC(C)O | -26.4
in CCCCCCCCO | -26.7
in CCCCCCCO | -26.8
in CCCCCCO | -26.7
in CCCCCO | -26.8
in CCCCO | -26.7
in CCCO | -26.6
in CCO | -26.6
in CCOC(C)=O | -26.6
in CO | -26.6

Nc1ccc(S(=O)(=O)NC(=O)c2ccccc2)cc1
Conditions | solvation free energy, 298 K [kcal/mol]
in O | -18.1

Nc1ncnc2nc[nH]c12
Conditions | solvation free energy, 298 K [kcal/mol]
in C=CCCCCCCC=C | -10.2
in C=CCCCCCCCCCCCCCC | -9.84
in O | -17.4

CCCCCC=O
Conditions | solvation free energy, 298 K [kcal/mol]
in CCCCCCCC | -4.76
in CCCCCCCCCCCCCCCC | -4.52
in CCCCCCCCO | -5.95
in NC=O | -4.02
in O | -2.74
in [2H]O[2H] | -2.75

CCOP(=S)(OCC)SCSc1ccc(Cl)cc1
Conditions | solvation free energy, 298 K [kcal/mol]
in O | -6.5

Clc1ccc(-c2ccc(Cl)c(Cl)c2)c(Cl)c1
Conditions | solvation free energy, 298 K [kcal/mol]
in O | -3.15

CI
Conditions | solvation free energy, 298 K [kcal/mol]
in Brc1cccc2ccccc12 | -3.3
in CC(=O)N(C)C | -3.63
in CC(=O)OCc1ccccc1 | -3.34
in CC(C)=O | -3.56
in CC(C)CC(C)(C)C | -2.94
in CCC(C)=O | -3.48
in CCCCCCC | -3.03
in CCCCCCCC | -2.99
in CCCCCCCCO | -2.95
in CCCCCl | -3.44
in CCCCO | -3.04
in CCO | -2.99
in CCOC(C)=O | -3.46
in CN1CCCC1=O | -3.77
in CN(C)C=O | -3.49
in CO | -3.21
in Cc1ccc(C)cc1 | -3.47
in ClC(Cl)(Cl)Cl | -3.49
in ClC(Cl)Cl | -3.78
in ClCCCl | -3.62
in ClCCl | -3.83
in N#Cc1ccccc1 | -3.41
in O | -0.89
in O=C1CCCCC1 | -3.58
in c1ccc2ncccc2c1 | -3.4

CCNc1nc(NC(C)(C)C)nc(OC)n1
Conditions | solvation free energy, 298 K [kcal/mol]
in O | -9

CCCCCCCCCCCOC(=O)c1ccccc1C(=O)OCCCCCCCCCCC
Conditions | solvation free energy, 298 K [kcal/mol]
in O | -6.08

CC1(C)CCCC2(C)C3CC4C(C31)C42C (stereo unspecified)
Conditions | solvation free energy, 298 K [kcal/mol]
in O | 1.12

C=C(C)C1CCC(C)C12CC=C(C)CC2 (stereo unspecified)
Conditions | solvation free energy, 298 K [kcal/mol]
in O | 0.25

CC(=O)OC(C)(C)C1CC=C(C)CC1 (stereo unspecified)
Conditions | solvation free energy, 298 K [kcal/mol]
in O | -3.41

CCCCCOC(=O)c1ccccc1C(=O)OCCCCC
Conditions | solvation free energy, 298 K [kcal/mol]
in O | -6.96

Oc1ccccc1
Conditions | solvation free energy, 298 K [kcal/mol]
in CC(C)CC(C)(C)C | -5.23
in CCCCCCC | -4.97
in CCCCCCCCCC | -5.49
in Cc1ccc(C)cc1 | -6.77
in Cc1cccc(C)c1 | -6.78
in Cc1ccccc1C | -6.84
in O | -6.62

Clc1ccccn1
Conditions | solvation free energy, 298 K [kcal/mol]
in O | -4.39

CC(C)Cc1cnccn1
Conditions | solvation free energy, 298 K [kcal/mol]
in O | -5.04

c1ccncc1
Conditions | solvation free energy, 298 K [kcal/mol]
in C1COCCO1 | -5.69
in CC(=O)N(C)C | -5.76
in CC(C)(C)O | -5.4
in CC(C)=O | -5.42
in CC(C)CC(C)(C)C | -4.03
in CC(C)CO | -5.67
in CC(C)O | -5.27
in CCC(C)=O | -5.37
in CCC(C)O | -5.63
in CCCCCC | -4.19
in CCCCCCCCCCCCCCCC | -4.04
in CCCCCCCCO | -5.32
in CCCCN(C=O)CCCC | -5.32
in CCCCO | -5.39
in CCCO | -5.44
in CCO | -5.7
in CNC(C)=O | -5.35
in O | -4.69
in [2H]O[2H] | -4.52

CCC(=O)OC
Conditions | solvation free energy, 298 K [kcal/mol]
in C1CCOC1 | -4.45
in CCCCCC | -3.65
in CCCCCCC | -3.63
in CCCCCCCC | -3.57
in CCCCCCCCCC | -3.49
in CCCO | -3.89
in CCO | -4.15
in CO | -4.32
in O | -2.93

CCC(C)(C)OC
Conditions | solvation free energy, 298 K [kcal/mol]
in CC(=O)N(C)C | -3.92
in CC(C)(C)O | -4.22
in CC(C)CC(C)(C)C | -4.24
in CCCCCC | -4.47
in CCCCCCC | -4.24
in CCCCCCCCCC | -4.16
in CCCCCCCCO | -4.07
in CCCCN(C=O)CCCC | -4.11
in CCN1CCCC1=O | -3.85
in CCN(CC)C(C)=O | -4.04
in CCNC(C)=O | -3.86
in CCNC=O | -3.79
in CN1CCCCC1=O | -3.86
in CN(C)C=O | -3.78
in CNC(C)=O | -3.75
in CNC=O | -3.62
in CO | -4.26
in O | -1.77

CCCCCCOC(=O)c1ccccc1C(=O)OCCCCCC
Conditions | solvation free energy, 298 K [kcal/mol]
in O | -6.78

Cc1cccc(N)c1
Conditions | solvation free energy, 298 K [kcal/mol]
in O | -5.69

Cc1ccc(CN)cc1
Conditions | solvation free energy, 298 K [kcal/mol]
in O | -6.07

C=CC(C)(CCC=C(C)C)OC=O (stereo unspecified)
Conditions | solvation free energy, 298 K [kcal/mol]
in O | -3.6

CC(C)C(=O)CC(=O)C(C)C
Conditions | solvation free energy, 298 K [kcal/mol]
in O | -4.08

CCCCOC
Conditions | solvation free energy, 298 K [kcal/mol]
in CCCCCl | -4.26
in ClC(Cl)(Cl)Cl | -4.39
in ClCCl | -4.71
